One assay deals with PARP1 (Homo sapiens, UniProt P09874). Description: PARP1 inhibition assay. The assay is classed as biochemical. As to conditions: tested in duplicate, average; for inhibition at 1 µM: read-out: Inhibition rate PARP1, 1 μmol/L; for inhibition at 10 µM: read-out: Inhibition rate PARP1, 10 μmol/L.
The target in assay [1] is recombinant BRD4(BD1 + BD2) (Homo sapiens, UniProt O60885). As to the kind of experiment: BRD4 inhibition assay. It counts as binding. As to conditions: tested in duplicate, average; for inhibition at 1 µM: read-out: Inhibition rate BRD4, 1 μmol/L; for inhibition at 10 µM: read-out: Inhibition rate BRD4, 10 μmol/L.
For a further assay, the system named is MDA-MB-468 cells. As to the kind of experiment: Cell viability assay. The assay is classed as cell-based, human. As to conditions: Homo sapiens, MDA-MB-468, 24 h, read-out: Anti-proliferative activity (IC50).

Chain of PARP1 (P09874 whole entry): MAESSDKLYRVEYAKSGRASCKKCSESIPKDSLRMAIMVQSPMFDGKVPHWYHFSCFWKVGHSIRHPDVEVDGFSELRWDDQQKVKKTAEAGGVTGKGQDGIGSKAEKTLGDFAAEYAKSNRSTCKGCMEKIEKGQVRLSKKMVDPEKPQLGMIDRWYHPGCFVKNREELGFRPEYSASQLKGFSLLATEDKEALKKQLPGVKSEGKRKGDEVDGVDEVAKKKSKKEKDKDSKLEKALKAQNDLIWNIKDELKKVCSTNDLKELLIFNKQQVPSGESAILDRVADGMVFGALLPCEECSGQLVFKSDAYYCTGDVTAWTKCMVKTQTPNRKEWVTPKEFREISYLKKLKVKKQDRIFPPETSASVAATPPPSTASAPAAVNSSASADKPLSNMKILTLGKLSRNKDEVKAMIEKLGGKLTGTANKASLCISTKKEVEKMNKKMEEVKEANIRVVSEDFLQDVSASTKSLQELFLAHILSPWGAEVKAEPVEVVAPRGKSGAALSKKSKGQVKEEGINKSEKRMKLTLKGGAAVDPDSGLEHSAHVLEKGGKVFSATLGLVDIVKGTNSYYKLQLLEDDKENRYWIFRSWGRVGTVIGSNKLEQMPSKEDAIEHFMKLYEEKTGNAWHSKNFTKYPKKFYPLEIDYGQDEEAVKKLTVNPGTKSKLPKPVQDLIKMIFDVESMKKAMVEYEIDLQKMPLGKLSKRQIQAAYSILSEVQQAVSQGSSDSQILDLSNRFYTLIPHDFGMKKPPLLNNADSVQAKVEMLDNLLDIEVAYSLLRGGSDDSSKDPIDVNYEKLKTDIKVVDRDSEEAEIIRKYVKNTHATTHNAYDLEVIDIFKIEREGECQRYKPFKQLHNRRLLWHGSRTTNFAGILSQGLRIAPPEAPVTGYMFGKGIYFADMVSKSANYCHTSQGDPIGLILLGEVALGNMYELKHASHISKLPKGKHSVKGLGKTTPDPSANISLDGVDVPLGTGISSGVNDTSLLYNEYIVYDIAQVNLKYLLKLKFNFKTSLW

For `O=c1[nH]c(-c2cccc3nc[nH]c23)nc2ccccc12` [Compound 5h, 2-(1H-Benzo[d]imidazole-7-yl)quinazolin-4(3H)-one], on PARP1, the inhibition at 1 µM came out at 3% and the inhibition at 10 µM turned out to be 10%. Moreover, in assay [1], the inhibition at 1 µM is 0% and the inhibition at 10 µM stood at 11%.

By IC50 is commonly meant the concentration that inhibits the measured activity by half. As to `COc1cc(OC)c2c(=O)[nH]c(-c3cc(Cl)ccc3OCCCOc3ccccc3C(N)=O)nc2c1` [Compound 19b, 2-(3-(4-Chloro-2-(5,7-dimethoxy-4-oxo-3,4-dihydroquinazolin-2-yl)phenoxy)propoxy)benzamide], the inhibition at 1 µM at PARP1 was determined as 35%; in assay [1], 3%. Moreover, the inhibition at 10 µM turned out to be 81% at PARP1 and 69% in assay [1]. The IC50 in the assay on MDA-MB-468 cells was 10.9 ± 0.5 µM.

As for `COc1cc(OC)c2c(=O)[nH]c(-c3cc(Cl)ccc3OCCCCOc3ccccc3C(N)=O)nc2c1` [Compound 19c, 2-(4-(4-Chloro-2-(5,7-dimethoxy-4-oxo-3,4-dihydroquinazolin-2-yl)phenoxy)butoxy)benzamide], at PARP1, the inhibition at 1 µM amounted to 29% and the inhibition at 10 µM worked out at 84%. Further, in assay [1], the inhibition at 1 µM was 7% and the inhibition at 10 µM came out at 54%. Further, the IC50 with MDA-MB-468 cells is 7.4 ± 1.8 µM.

For the compound `O=C(c1ccc(-c2nc3ccccc3c(=O)[nH]2)c(F)c1)N1CCn2c(nnc2C(F)(F)F)C1` [Compound 15d, 2-(2-Fluoro-4-(3-(trifluoromethyl)-5,6,7,8-tetrahydro-[1,2,4]triazolo[4,3-a]pyrazine-7-carbonyl)phenyl)quinazolin-4(3H)-one], at PARP1, the inhibition at 10 µM came to 60%. Also, in assay [1], the inhibition at 1 µM stood at 3% and the inhibition at 10 µM is 18%.

For the compound `COc1cc(OC)c2c(=O)[nH]c(-c3cc(C)c(OCCO)c(C)c3)nc2c1` [RVX-208, reference compound], at PARP1, the inhibition at 1 µM was 1% and the inhibition at 10 µM worked out at 4%. For the same compound, in assay [1], the inhibition at 1 µM was 20% and the inhibition at 10 µM was 60%. Besides, the IC50 with MDA-MB-468 cells is over 30 µM.

Turning to `O=C(c1cccc(-c2nc3ccccc3c(=O)[nH]2)c1)N1CCN(C(=O)C2CC2)CC1` [Compound 11b, 2-(3-(4-(Cyclopropanecarbonyl)piperazine-1-carbonyl)phenyl)quinazolin-4(3H)-one], on PARP1, the inhibition at 1 µM turned out to be 16% and the inhibition at 10 µM stood at 70%. In assay [1], the inhibition at 1 µM stood at 12% and the inhibition at 10 µM stood at 43%.

Turning to `COc1cccc2nc(-c3cccc(C(=O)N4CCN(C(=O)C5CC5)CC4)c3)[nH]c(=O)c12` [Compound 11e, 2-(3-(4-(Cyclopropanecarbonyl)piperazine-1-carbonyl)phenyl)-5-methoxyquinazolin-4(3H)-one], the inhibition at 1 µM on PARP1 was 4%; in assay [1] it was 8%. In addition, the inhibition at 10 µM is 46% on PARP1 and 30% in assay [1].

Regarding `COc1cc(OC)c2c(=O)[nH]c(-c3c[nH]c4ncccc34)nc2c1` [Compound 5i, 5,7-Dimethoxy-2-(1H-pyrrolo[2,3-b]pyridin-3-yl)quinazolin-4(3H)-one], on PARP1, the inhibition at 1 µM was 8%.

`O=c1[nH]c(-c2c[nH]c3ncccc23)nc2ccccc12` [Compound 5j, 2-(1H-Pyrrolo[2,3-b]pyridin-3-yl)quinazolin-4(3H)-one]: in assay [1], the inhibition at 1 µM worked out at 6%.

Consider `COc1cccc2nc(-c3ccc(C(=O)N4CCN(C(=O)C5CC5)CC4)cc3F)[nH]c(=O)c12` [Compound 15e, 2-(4-(4-(Cyclopropanecarbonyl)piperazine-1-carbonyl)-2-fluorophenyl)-5-methoxyquinazolin-4(3H)-one], for which the inhibition at 1 µM on PARP1 was determined as 7%; in assay [1], 9%.

With `COc1cc(OC)c2c(=O)[nH]c(-c3ccc(C(=O)N4CCn5c(nnc5C(F)(F)F)C4)cc3F)nc2c1` [Compound 15c, 2-(2-Fluoro-4-(3-(trifluoromethyl)-5,6,7,8-tetrahydro-[1,2,4]triazolo[4,3-a]pyrazine-7-carbonyl)phenyl)-5,7-dimethoxyquinazolin-4(3H)-one], the figures for the inhibition at 1 µM (at PARP1; in assay [1]) were 11% and 5%, respectively. Also, the inhibition at 10 µM turned out to be 55% on PARP1 and 30% in assay [1].

With `O=c1[nH]c(-c2ccc(N3CCOCC3)cc2)nc2ccccc12` [Compound 5f, 2-(4-Morpholinophenyl)quinazolin-4(3H)-one], the inhibition at 1 µM on PARP1 came to 0%; in assay [1], 12%. The inhibition at 10 µM turned out to be 29% on PARP1 and 55% in assay [1].

For `COc1cc(OC)c2c(=O)[nH]c(-c3cccc(C(=O)N4CCN(C(=O)C5CC5)CC4)c3)nc2c1` [Compound 11a, 2-(3-(4-(Cyclopropanecarbonyl)piperazine-1-carbonyl)phenyl)-5,7-dimethoxyquinazolin-4(3H)-one], the inhibition at 1 µM on PARP1 was 6%; in assay [1], 4%. The inhibition at 10 µM amounted to 57% at PARP1 and 50% in assay [1].

For `O=C(c1ccc(-c2nc3ccccc3c(=O)[nH]2)c(F)c1)N1CCN(C(=O)C2CC2)CC1` [Compound 15b, 2-(4-(4-(Cyclopropanecarbonyl)piperazine-1-carbonyl)-2-fluorophenyl)quinazolin-4(3H)-one], at PARP1, the inhibition at 1 µM came to 6% and the inhibition at 10 µM was at most 87%. In assay [1], the inhibition at 1 µM turned out to be 4% and the inhibition at 10 µM amounted to 53%.

For `COc1cc(OC)c2c(=O)[nH]c(-c3ccc(OCOc4ccccc4C(N)=O)cc3)nc2c1` [Compound 19v, 2-((4-(5,7-Dimethoxy-4-oxo-3,4-dihydroquinazolin-2-yl)phenoxy)methoxy)benzamide], the inhibition at 1 µM on PARP1 turned out to be 19%; in assay [1] it was 29%. Further, the inhibition at 10 µM was found to be 51% at PARP1 and 60% in assay [1].

`COc1cc(OC)c2c(=O)[nH]c(-c3ccc(C(=O)N4CCN(C(=O)C5CC5)CC4)cc3F)nc2c1` [Compound 15a, 2-(4-(4-(Cyclopropanecarbonyl)piperazine-1-carbonyl)-2-fluorophenyl)-5,7-dimethoxyquinazolin-4(3H)-one]: the inhibition at 1 µM on PARP1 worked out at 14%; in assay [1], 7%. In addition, the inhibition at 10 µM on PARP1 stood at 72%; in assay [1], 68%.

As to `COc1cc(OC)c2c(=O)[nH]c(-c3ccc4cc[nH]c4c3)nc2c1` [Compound 5g, 2-(1H-Indol-6-yl)-5,7-dimethoxyquinazolin-4(3H)-one], the inhibition at 1 µM on PARP1 was determined as 9%; in assay [1] it was 3%. In addition, the inhibition at 10 µM on PARP1 amounted to 34%; in assay [1], 13%.

As for `CNC(=O)c1ccc(-c2nc3ccccc3c(=O)[nH]2)cc1` [Compound 5b, N-Methyl-4-(4-oxo-3,4-dihydroquinazolin-2-yl)benzamide], on PARP1, the inhibition at 1 µM was 0% and the inhibition at 10 µM stood at 15%. Moreover, in assay [1], the inhibition at 1 µM turned out to be 0% and the inhibition at 10 µM amounted to 22%.

As to `COc1cc(OC)c2c(=O)[nH]c(-c3ccc(C(N)=O)cc3)nc2c1` [Compound 5c, 4-(5,7-Dimethoxy-4-oxo-3,4-dihydroquinazolin-2-yl)benzamide], on PARP1, the inhibition at 1 µM stood at 0% and the inhibition at 10 µM turned out to be 2%. In addition, in assay [1], the inhibition at 1 µM came out at 1% and the inhibition at 10 µM is 18%.

`O=C(c1cc(Cc2n[nH]c(=O)c3ccccc23)ccc1F)N1CCN(C(=O)C2CC2)CC1` [Olaparib, reference compound]: the IC50 in the assay on MDA-MB-468 cells stood at 1.1 ± 1.4 µM.

On to “2-(4-((4-(Cyclopropanecarbonyl)piperazin-1-yl)methyl)phenyl)-5,7-dimethoxyquinazolin-4(3H)-one [Compound 11c]”, for which the results for the “Inhibition rate PARP1” value at PARP1 (1 μmol/L) and at PARP1 (10 μmol/L) were 8% and 60%, respectively. The “Inhibition rate BRD4” value in assay [1] (1 μmol/L) was 9%; in assay [1] (10 μmol/L), 47%.

In the case of `COc1cc(OC)c2c(=O)[nH]c(-c3ccc(N4CCOCC4)cc3)nc2c1` [Compound 5e, 5,7-Dimethoxy-2-(4-morpholinophenyl)quinazolin-4(3H)-one], at PARP1, the inhibition at 1 µM worked out at 2% and the inhibition at 10 µM stood at 36%. Also, in assay [1], the inhibition at 1 µM turned out to be 12% and the inhibition at 10 µM came out at 70%.

With `NC(=O)c1ccc(-c2nc3ccccc3c(=O)[nH]2)cc1` [Compound 5d, 4-(4-Oxo-3,4-dihydroquinazolin-2-yl)benzamide], on PARP1, the inhibition at 1 µM worked out at 0% and the inhibition at 10 µM amounted to 1%. In assay [1], the inhibition at 1 µM was 2% and the inhibition at 10 µM was 19%.

For `CNC(=O)c1ccc(-c2nc3cc(OC)cc(OC)c3c(=O)[nH]2)cc1` [Compound 5a, 4-(5,7-Dimethoxy-4-oxo-3,4-dihydroquinazolin-2-yl)-N-methylbenzamide], at PARP1, the inhibition at 1 µM was 4% and the inhibition at 10 µM came to 25%. Also, in assay [1], the inhibition at 1 µM stood at 1% and the inhibition at 10 µM came to 36%.

In the case of “2-(4-((4-(Cyclopropanecarbonyl)piperazin-1-yl)methyl)phenyl)quinazolin-4(3H)-one [Compound 11d]”, the “Inhibition rate PARP1” value was 18% at PARP1 (1 μmol/L) and 71% on PARP1 (10 μmol/L). The “Inhibition rate BRD4” value in assay [1] (1 μmol/L) was 4%; in assay [1] (10 μmol/L) it was 41%.

Take `COc1cc(OC)c2c(=O)[nH]c(-c3cccc4nc[nH]c34)nc2c1` [Compound 5k, 2-(1H-Benzo[d]imidazole-7-yl)-5,7-dimethoxyquinazolin-4(3H)-one]: on PARP1, the inhibition at 1 µM came out at 6% and the inhibition at 10 µM worked out at 39%. Further, in assay [1], the inhibition at 1 µM came out at 8% and the inhibition at 10 µM came out at 42%.

Values taken from PMC7838034 (Acta Pharmaceutica Sinica. B, 2020).
